Data as given in US20250101436A1, “APTAMERS AND SMALL MOLECULE LIGANDS” (MeiraGTx UK II Limited, priority 2021, published 2025).

test system: N5-12G6 riboswitch; experiment: Firefly luciferase assay, N5-12G6 riboswitch in HEK293 cells; conditions: 12G6 riboswitch, HEK293
Experimental: Transfection: 3.5×10^4 human embryonic kidney (HEK) 293 cells were plated in a 96-well flat bottom plate the day before transfection. Plasmid DNA (500 ng) was added to a tube or a 96-well U-bottom plate. Separately, TransIT-293 reagent (Mirus; 1.4 L) was added to 50 μL Optimum I media (Life Technologies) and allowed to sit for 5 minutes at room temperature (RT). Then, 50 μL of this diluted transfection reagent was added to the DNA, mixed, and incubated at RT for 20 min. Finally, 7 μL of this solution was added to a well of cells in the 96-well plate. Four hours after transfection, medium containing transfection solution was replaced by medium with either TPP or fursultiamine as aptamer ligands.
Firefly luciferase assay of cultured cells: Twenty-four hours after media change, plates were removed from the incubator, and equilibrated to RT for several minutes on a lab bench, then aspirated. Glo-lysis buffer (Promega, 100 μL, RT) was added, and the plates allowed to remain at RT for at least 5 minutes. Then, the well contents were mixed by 50 μL trituration, and 20 μL of each sample was mixed with 20 μL of bright-glo reagent (Promega) that had been diluted to 10% in glo-lysis buffer. 96 wells were spaced on an opaque white 384-well plate. Following a 5 min incubation at RT, luminescence was measured using a Tecan machine with 500 ms read time. The luciferase activity was expressed as mean arbitrary light units (ALU)±S.D., and fold induction was calculated as the quotient of the luciferase activity obtained from cells with TPP or analog compound treatment divided by the luciferase activity obtained from cells without TPP or analog compound treatment.

Compound | regulation of luciferase expression (FIG. 4e)
Fc1cc(CNc2cnccc2N2CCNCC2)cc2nccnc12 [compound 012, N-((8-Fluoroquinoxalin-6-yl)methyl)-4-(piperazin-1-yl)pyridin-3-amine] | regulate expression in a dose-dependent fashion

same assay, conditions: Homo sapiens, HEK293, read-out: Fold induction 2 μM (HEK), 12G6 riboswitch, luciferase, HEK293, 2 μM

Compound | fold induction at 2 µM
Cc1cncc(NCc2ccc3nccnc3c2)c1O[C@@H]1CCNC1 [compound 111, (R)-5-methyl-4-(pyrrolidin-3-yloxy)-N-(quinoxalin-6-ylmethyl)pyridin-3-amine] | 74
Cc1cncc(NCc2cc(F)c3nccnc3c2)c1N1CCNCC1 [compound 084, N-((8-fluoroquinoxalin-6-yl)methyl)-5-methyl-4-(piperazin-1-yl)pyridin-3-amine] | 66.4
Cc1cc(CNc2cnccc2O[C@@H]2CCNC2)cc2nccnc12 [compound 122, (R)—N-((8-methylquinoxalin-6-yl)methyl)-4-(pyrrolidin-3-yloxy)pyridin-3-amine] | 35.8
C[C@H]1CNCCN1c1c(Cl)cncc1NCc1ccc2nccnc2c1 [compound 061, (S)-5-chloro-4-(2-methylpiperazin-1-yl)-N-(quinoxalin-6-ylmethyl)pyridin-3-amine] | 6
C[C@@H]1CNCCN1c1ccncc1NCc1ccc2nccnc2c1 [compound 020, (R)-4-(2-Methylpiperazin-1-yl)-N-(quinoxalin-6-ylmethyl)pyridin-3-amine] | 31.2
C[C@H]1CN(c2ccncc2NCc2cc3nccnc3cc2Cl)CCN1 [compound 057, (S)—N-((7-chloroquinoxalin-6-yl)methyl)-4-(3-methylpiperazin-1-yl)pyridin-3-amine] | 22.3
c1cc(O[C@@H]2CCNC2)c(NCc2ccc3nccnc3c2)cn1 [compound 021, (R)-4-(pyrrolidin-3-yloxy)-N-(quinoxalin-6-ylmethyl)pyridin-3-amine] | 68.4
Cc1cc2nccnc2cc1CNc1cnccc1N1CCNCC1 [compound 069, N-((7-methylquinoxalin-6-yl)methyl)-4-(piperazin-1-yl)pyridin-3-amine] | 28.3
Clc1cc2nccnc2cc1CNc1cnccc1OC1CNC1 [compound 029, 4-(Azetidin-3-yloxy)-N-((7-chloroquinoxalin-6-yl)methyl)pyridin-3-amine] | 41.3
N#Cc1ccc(N2CCNCC2)c(NCc2ccc3nccnc3c2)c1 [compound 048, 4-(piperazin-1-yl)-3-((quinoxalin-6-ylmethyl)amino)benzonitrile] | 1
COc1cc2nccnc2cc1CNc1cnccc1N1CCNCC1 [compound 072, N-((7-methoxyquinoxalin-6-yl)methyl)-4-(piperazin-1-yl)pyridin-3-amine] | 19.6
Fc1cncc(NCc2ccc3nccnc3c2)c1O[C@@H]1CCNC1 [compound 109, (R)-5-fluoro-4-(pyrrolidin-3-yloxy)-N-(quinoxalin-6-ylmethyl)pyridin-3-amine] | 54.6
C[C@H]1CNCCN1c1ccncc1NCc1cc2nccnc2cc1Cl [compound 063, (S)—N-((7-chloroquinoxalin-6-yl)methyl)-4-(2-methylpiperazin-1-yl)pyridin-3-amine] | 2.7
Clc1cncc(NCc2ccc3nccnc3c2)c1OC1CNC1 [compound 027, 4-(Azetidin-3-yloxy)-5-chloro-N-(quinoxalin-6-ylmethyl)pyridin-3-amine] | 49.4

same assay, conditions: Homo sapiens, HEK293, read-out: Fold induction 3.3 μM (HEK), 12G6 riboswitch, luciferase, HEK293, 3.3 μM

Compound | fold induction at 3.3 µM
C[C@@H]1CNCCN1c1ccncc1NCc1ccc2nccnc2c1 [compound 020, (R)-4-(2-Methylpiperazin-1-yl)-N-(quinoxalin-6-ylmethyl)pyridin-3-amine] | 52
c1cc(O[C@@H]2CCNC2)c(NCc2ccc3nccnc3c2)cn1 [compound 021, (R)-4-(pyrrolidin-3-yloxy)-N-(quinoxalin-6-ylmethyl)pyridin-3-amine] | 62

same assay, conditions: Homo sapiens, HEK293, read-out: Fold induction 25 μM (HEK), 12G6 riboswitch, luciferase, HEK293, 25 μM

Compound | fold induction at 25 µM
NC1CCN(c2ccncc2NCc2ccc3nccnc3c2)CC1 [compound 033, 4-(4-aminopiperidin-1-yl)-N-(quinoxalin-6-ylmethyl)pyridin-3-amine] | 7.8
c1cc(C2CCNCC2)c(NCc2ccc3nccnc3c2)cn1 [compound 017, 4-(Piperidin-4-yl)-N-(quinoxalin-6-ylmethyl)pyridin-3-amine] | 130
Fc1cc(CNc2cnccc2N2CCNCC2)cc2nccnc12 [compound 012, N-((8-Fluoroquinoxalin-6-yl)methyl)-4-(piperazin-1-yl)pyridin-3-amine] | 383
